From US20090306012A1, “THERAPEUTIC PROTOCOLS” (priority 2001, published 2009)

Assays:
[1] = In vivo cytotoxicity (I): metabolic stress (daily body weight); parameters: species or system Male F1 mice (C57×CBA)
Source text: All treatment groups were monitored for weight loss on a daily basis. At the end of the study the data were expressed as percentage of original body mass and graphed in this maimer.

cardiac troponin T = test: In vivo cardiotoxicity (I): serum levels of cardiac troponin-T (cTnT); parameters: species or system Adult female Wistar rats; conditions: weekly iv […] Dox, rats
Procedure: (§1) Group 6 received no treatment.
Prior to the commencement of the study, blood (500 μL) was collected from each rat via a tail vein bleed procedure. Blood was collected in 1.5 mL Capiject tube and allowed to clot for a minimum of 30 minutes. […] After pre-bleeds, each experimental animal was injected with respective drug combination or control treatment and 24 hours after administration the rats were tail-bled and processed as described above. Thereafter, animals were injected with drug combinations at weekly intervals for 12 weeks, and blood was collected 24 hours after treatment.

cardiac myocytes [2] = test: In vivo cardiotoxicity (I): cardiac damage by electron microscopy; parameters: species or system Adult female Wistar rats; conditions: chronic exposure, rats
Source text: as §1
(§2) Immediately after animal sacrifice, a traverse section of the intraventricular septum was dissected from the heart and fixed in 2% glutaraldehyde, 2% paraformaldehyde and 4% glucose in phosphate buffer. Standard post-buffering, osmication and processing were followed. Specimens were examined with a Philip's electron microscope and the frequency and severity of cardiac damage in the myocardial cells were graded according to the method according to Billingham et al. (Can. Treat. Rep. 62: 865-872, 1978). In brief, blocks were selected that consisted predominantly of transected cardiac myocytes.

[3] = test system: peripheral blood neutrophils; test: In vivo cytotoxicity (II): daily blood neutrophil and differential counts; parameters: species or system Male F1 mice (C57×CBA)
Procedure: For each treatment dosage a total of 6 groups (n=8 mice per group) were used. Data from each treatment group were established by staggering results of groups of 6 (counted individually), sampling each group every 4 days so that a daily assessment could be established. Each group was treated as described above, prior to the drug administration. -Throughout this study, blood was collected and analyzed for neutrophil content as outlined in previous examples.
Again, to normalize the data for comparison between treatments, neutropenia was expressed as a percentage of neutrophils on day 0 (before drug administration).

cardiac myocytes [4] = test: In vivo cardiotoxicity (II): myocardial pathology by transmission electron microscopy (vacuolated myocytes); parameters: species or system Adult female spontaneously hypertensive rats; conditions: cumulative Dox 13 mg/kg, 12 weeks
Source text: as §2
(§3) Group 4 received no treatment.
For analyses, tissue processing and assays of antioxidant enzymes and GSH, were carried out as described in Example 2. Analysis of cardiac damage by transmission electron microscopy was also carried out as described in Example 2.
To minimize anatomical variation across treatment groups, samples of the lateral border of the left ventricle were processed for EM analysis.

[5] = test system: reduced glutathione (GSH); test: In vivo cardiotoxicity (II): tissue reduced glutathione (GSH) level; parameters: species or system Adult female spontaneously hypertensive rats; conditions: chronic exposure, vs control values
Procedure: For the GSH assay, 0.25 mL of 25% w/v metaphosphoric acid was added to the 1 mL of the original crude homogenate, mixed thoroughly and incubated on ice for 15 minutes. The protein precipitate was pelleted by centrifugation at 10,000 g for 10 minutes at 4° C. The clear supernatant was transferred to a clean tube and either stored at −70° C. for no longer than three days or GSH levels were directly determined. The level of GSH was determined using a fluorometric assay using 0-phthalaldehyde as described by Cohn & Lyle (Anal. Biochem. 14(3): 434-440, 1966).
as §3

neutrophils = test: Phase I clinical trial of doxorubicin + HA (HyDox) in advanced cancer: toxicity, neutrophil counts; assay type: in vivo, patients
Source text: The eligibility criteria, for inclusion in this study, were as follows: Patients must have advanced or metastatic cancer, histologically or cytologically confirmed. Patients were not to have had previous chemotherapy or were to have had no more than one prior chemotherapy regime and were not to have had prior anthracyclines. Patients were to be aged between 18 and 75 years with ambulatory performance status and adequate bone marrow, liver and renal function.
The treatment plan provided that, in the first chemotherapy cycle, patients be randomized to receive Dox alone or Dox plus HA. The converse applied in the second cycle. In the subsequent four cycles, patients received Dox plus HA. This allowed each patient to act as his/her own control in the toxicity analysis in the first two cycles, reducing the possibility of inter-patient variability affecting result interpretation.
Injectable sodium chloride was obtained from Baxter Healthcare, Sydney, Australia, as supplied as a 500 ml infusion bag.
Therefore, the initial dose level was 30 mg/m^2, the next 45 mg/m^2 and the next 60 mg/m^2.

Glutathione peroxidase = conditions: chronic exposure, vs control groups
Procedure: One week after the last injection, the rats were killed by decapitation and internal organs were fixed in 10% v/v formalin in phosphate buffered saline. Prior to tissue fixation, portions of the kidney, liver, and skeletal muscle and heart were quickly removed and placed in tubes on ice. The tissue was either used immediately or stored at −80° C. until assayed. Each sample was minced into small pieces, washed vigorously in two changes of ice cold 0.25 M sucrose containing 1 mM EDTA, then washed in 50 mM potassium phosphate buffer pH 7.8 containing 0.1 mM EDTA prior to recording the tissues ‘wet’ weight. The tissue was then resuspended in 2 mL of ice-phosphate-EDTA buffer and homogenized on ice for three 5-second bursts over 5 minutes using an Ultraturrax homogenizer. The fine suspension was made up to a final volume of 4 mL with the phosphate-EDTA buffer and used for the enzyme and GSH assays described below.
From the 4 mL tissue homogenate, 1 mL was transferred to a clean 1.5 mL Eppendorf and stored on ice. […]
SOD activity was determined measuring the Cytochrome c by the method according to McCord & Fridovich (J. Biol. Chem. 244(22): 6056-6063, 1969). GP activity was assessed by an indirect coupled assay (Paglia & Valentine, J. Lab. Clin. Med. 70(1): 158-169, 1967). […]
For control purposes, antioxidant loading from hepatic, renal and skeletal muscle extracts was also determined.

[6] = In vivo cytotoxicity (I): general toxicity (survival); conditions: 24 mg/kg Dox, single iv bolus, 14 days
Procedure: Male F1 mice (C57×CBA; 11-13 weeks old), used for in vivo studies, were obtained from The Animal Central Division (Monash University, Victoria, Australia). The mice were distributed at random into each treatment group (6 per treatment group) and allowed to acclimatize for 2-3 weeks before commencing the study. […] Before a treatment group was started, blood (200 μL) from each experimental animal was collected by retroorbital sinus bleed and immediately transferred to tube containing EDTA, gently flick mixed and stored on ice until analysis. This was taken as day 0, after which the mice were given a single bolus intravenous injection via tail vein with corresponding control, drug, or HA/drug combinations. The mice were then sequentially bled on days 1, 4, 7, 10 and 14 by the aforementioned method. All blood samples were analyzed for white blood cell composition in an Adiva 120 Differential Coulter Counter (Bayer Diagnostics, USA). Throughout the duration of the study, mouse mass, food intake and general activity levels were recorded on a daily basis. On day 14, mice were sacrificed by cervical dislocation and the heart, lungs, liver, spleen, kidneys, stomach, intestines and testicles removed and immediately fixed in 10% v/v formalin in phosphate buffered saline.

COc1cccc2c1C(=O)c1c(O)c3c(c(O)c1C2=O)C[C@@](O)(C(=O)CO)C[C@@H]3O[C@H]1C[C@H](N)[C@H](O)[C@H](C)O1 [Dox, doxorubicin]
Maximum weight loss, % of original body mass ([1]; 9 mg/kg Dox): ~−10% | Original body mass lost ([1]; 12 mg/kg Dox, by day 11): ~13% | Original weight lost ([1]; 24 mg/kg dosage group, by day 7): ~25% | Cumulative dose of Dox at which cardiotoxicity (serum troponin T release) begins (cardiac troponin T): 9 mg/kg | Appearance of myocytes in the heart (electron micrographs) (cardiac myocytes [2]): vacuolated myocytes | Duration of nadir neutropenia ([3]; 12 mg/kg): 2 days | Onset of nadir neutropenia ([3]; 12 mg/kg): 4 days | Duration of nadir neutropenia before recovery ([3]; 16 mg/kg): > 48 h | Myocyte vacuolation compared with the HyDox group (cardiac myocytes [4]): almost two-three-fold greater | Level of hepatic GSH [5]: remained unchanged | Neutrophils as % of Day 1 (neutrophils; Patient 1, Cycle 2, 30 mg/m2, day 1): 100% | Neutrophils as % of Day 1 (neutrophils; Patient 1, Cycle 2, 30 mg/m2, day 6): 100% | Neutrophils as % of Day 1 (neutrophils; Patient 1, Cycle 2, 30 mg/m2, day 8): 109% | Neutrophils as % of Day 1 (neutrophils; Patient 1, Cycle 2, 30 mg/m2, day 10): 109% | Neutrophils as % of Day 1 (neutrophils; Patient 1, Cycle 2, 30 mg/m2, day 13): 83% | Neutrophils as % of Day 1 (neutrophils; Patient 1, Cycle 2, 30 mg/m2, day 15): 57% | Neutrophils as % of Day 1 (neutrophils; Patient 1, Cycle 2, 30 mg/m2, day 20): 57% | Neutrophils as % of Day 1 (neutrophils; Patient 1, Cycle 2, 30 mg/m2, day 21): 74% | Neutrophils as % of Day 1 (neutrophils; Patient 1, Cycle 3, 30 mg/m2, day 1): 100% | Neutrophils as % of Day 1 (neutrophils; Patient 2, Cycle 1, 30 mg/m2, day 1): 100% | Neutrophils as % of Day 1 (neutrophils; Patient 2, Cycle 1, 30 mg/m2, day 4): 120% | Neutrophils as % of Day 1 (neutrophils; Patient 2, Cycle 1, 30 mg/m2, day 8): 132% | Neutrophils as % of Day 1 (neutrophils; Patient 2, Cycle 1, 30 mg/m2, day 10): 78% | Neutrophils as % of Day 1 (neutrophils; Patient 2, Cycle 1, 30 mg/m2, day 15): 54% | Neutrophils as % of Day 1 (neutrophils; Patient 2, Cycle 1, 30 mg/m2, day 17): 40% | Neutrophils as % of Day 1 (neutrophils; Patient 2, Cycle 1, 30 mg/m2, day 21): 86% | Neutrophils as % of Day 1 (neutrophils; Patient 2, Cycle 3, 30 mg/m2, day 1): 100% | Neutrophils as % of Day 1 (neutrophils; Patient 5, Cycle 1, 30 mg/m2, day 1): 100% | Neutrophils as % of Day 1 (neutrophils; Patient 5, Cycle 1, 30 mg/m2, day 4): 78% | Neutrophils as % of Day 1 (neutrophils; Patient 5, Cycle 1, 30 mg/m2, day 7): 70% | Neutrophils as % of Day 1 (neutrophils; Patient 5, Cycle 1, 30 mg/m2, day 9): 73% | Neutrophils as % of Day 1 (neutrophils; Patient 5, Cycle 1, 30 mg/m2, day 12): 49% | Neutrophils as % of Day 1 (neutrophils; Patient 5, Cycle 1, 30 mg/m2, day 14): 38% | Neutrophils as % of Day 1 (neutrophils; Patient 5, Cycle 1, 30 mg/m2, day 16): 32% | Neutrophils as % of Day 1 (neutrophils; Patient 5, Cycle 1, 30 mg/m2, day 19): 38% | Neutrophils as % of Day 1 (neutrophils; Patient 5, Cycle 1, 30 mg/m2, day 21): 59% | Neutrophils as % of Day 1 (neutrophils; Patient 5, Cycle 3, 30 mg/m2, day 1): 100% | Neutrophils as % of Day 1 (neutrophils; Patient 7, Cycle 1, 45 mg/m2, day 1): 100% | Neutrophils as % of Day 1 (neutrophils; Patient 7, Cycle 1, 45 mg/m2, day 4): 46% | Neutrophils as % of Day 1 (neutrophils; Patient 7, Cycle 1, 45 mg/m2, day 8): 56% | Neutrophils as % of Day 1 (neutrophils; Patient 7, Cycle 1, 45 mg/m2, day 10): 41% | Neutrophils as % of Day 1 (neutrophils; Patient 7, Cycle 1, 45 mg/m2, day 12): 35% | Neutrophils as % of Day 1 (neutrophils; Patient 7, Cycle 1, 45 mg/m2, day 15): 19% | Neutrophils as % of Day 1 (neutrophils; Patient 7, Cycle 1, 45 mg/m2, day 17): 14% | Neutrophils as % of Day 1 (neutrophils; Patient 7, Cycle 1, 45 mg/m2, day 19): 21% | Neutrophils as % of Day 1 (neutrophils; Patient 7, Cycle 3, 45 mg/m2, day 1): 100% | Neutrophils as % of Day 1 (neutrophils; Patient 8, Cycle 2, 45 mg/m2, day 1): 100% | Neutrophils as % of Day 1 (neutrophils; Patient 8, Cycle 2, 45 mg/m2, day 4): 84% | Neutrophils as % of Day 1 (neutrophils; Patient 8, Cycle 2, 45 mg/m2, day 8): 85% | Neutrophils as % of Day 1 (neutrophils; Patient 8, Cycle 2, 45 mg/m2, day 10): 39% | Neutrophils as % of Day 1 (neutrophils; Patient 8, Cycle 2, 45 mg/m2, day 12): 81% | Neutrophils as % of Day 1 (neutrophils; Patient 8, Cycle 2, 45 mg/m2, day 15): 62% | Neutrophils as % of Day 1 (neutrophils; Patient 10, Cycle 1, 60 mg/m2, day 1): 100% | Neutrophils as % of Day 1 (neutrophils; Patient 10, Cycle 1, 60 mg/m2, day 4): 93% | Neutrophils as % of Day 1 (neutrophils; Patient 10, Cycle 1, 60 mg/m2, day 6): 63% | Neutrophils as % of Day 1 (neutrophils; Patient 10, Cycle 1, 60 mg/m2, day 8): 33% | Neutrophils as % of Day 1 (neutrophils; Patient 10, Cycle 1, 60 mg/m2, day 10): 4% | Neutrophils as % of Day 1 (neutrophils; Patient 10, Cycle 1, 60 mg/m2, day 13): 3% | Neutrophils as % of Day 1 (neutrophils; Patient 10, Cycle 1, 60 mg/m2, day 17): 20% | Neutrophils as % of Day 1 (neutrophils; Patient 10, Cycle 1, 60 mg/m2, day 20): 47% | Neutrophils as % of Day 1 (neutrophils; Patient 12, Cycle 1, 60 mg/m2, day 1): 100% | Neutrophils as % of Day 1 (neutrophils; Patient 12, Cycle 1, 60 mg/m2, day 4): 124% | Neutrophils as % of Day 1 (neutrophils; Patient 12, Cycle 1, 60 mg/m2, day 7): 95% | Cardiac glutathione peroxidase levels (Glutathione peroxidase): equally increased | Mice that survived until the end of the study [6]: 2 mice
